Experimental findings from ChEMBL document CHEMBL1127247, “Isoarecolones and arecolones: selective central nicotinic agonists that cross the blood-brain barrier” (Bioorg Med Chem Lett, 1994) are described below.

In assay [1] the target is Neuronal acetylcholine receptor. The assay is described as follows: Binding affinity for Nicotinic acetylcholine receptor site in rat cortex was determined using [3H]MCC as radioligand.
Assay [2] has as its target Muscarinic acetylcholine receptor. In words: Binding affinity for muscarinic receptor site in rat hippocampus was determined using competitive radioligand binding assays employing [3H]OXO-M. Format: tissue-based.
Assay [3] is described as follows: Selectivity for nicotinic agonist activity was determined between Ki for [3H]-OXO-M and to that for [3H]MCC. Format: functional.
For assay [4], the species on record is Rattus norvegicus. In words: (§1) Effect of compound on accumulation of dopamine metabolite dihydroxyphenyl acetic acid (DOPAC) in nucleus accumbens. Format: functional, organism-based.
The species entered for assay [5] is Rattus norvegicus. In words: (§2) Effect of compound on accumulation of dopamine metabolite dihydroxyphenyl acetic acid (DOPAC) in rat striatum. Format: functional, organism-based.
For assay [6], the species on record is Rattus norvegicus. In words: (§3) Effect of compound on accumulation of homovanillic acid (HVA) in nucleus accumbens. Format: functional, organism-based.
Assay [7] is filed under the species Rattus norvegicus. In words: (§4) Effect of compound on accumulation of homovanillic acid (HVA) in rat striatum. Format: functional, organism-based.
The species entered for assay [8] is Rattus norvegicus. The description is as §1. Format: functional.
For assay [9], the species on record is Rattus norvegicus. Described as §2. Format: functional.
The species named for assay [10] is Rattus norvegicus. Described as §3. Format: functional.
For assay [11], the species on record is Rattus norvegicus. The assay is described as §4. Format: functional.

A value given as a limit tells only on which side of the number the result lay.

What is called Ki is a dissociation constant, usually derived from enzyme kinetics or from competition with a known ligand. Consider `CCCC(=O)C1=CCN(C)CC1`, for which the Ki in assay [1] is 0.0673 µM; in [2], greater than 5 µM. Also, the Selectivity in assay [3] is greater than 74.

Turning to `CC#CC(=O)C1=CCN(C)CC1`, the Ki in assay [1] is 0.022 µM; in assay [2], 2.69 µM. For the same compound, the Concentration in assay [4] is 1.66 nM/g; in assay [5] it was 1.91 nM/g; in [6], 0.73 nM/g; in [7] it was 1.25 nM/g. Besides, the Control was determined as 120% in [8], 123% in assay [9], 132% in assay [10] and 140% in assay [11]. In addition, the Selectivity in assay [3] came to 122.

Take `CCC(=O)C1=CCN(C)CC1`: the Ki in assay [1] was 0.0257 µM; in [2] it was greater than 5 µM. This compound had a Selectivity in assay [3] greater than 195.

For `CN1CC=C(C(=O)C(C)(C)C)CC1`, the Ki in assay [1] came to 0.0567 µM; in [2], 6.25 µM. Moreover, the Selectivity in [3] worked out at 110.

Turning to `CN1CCC=C(C(=O)c2ccccc2)C1`, the values for the Ki in assay [1] and in [2] were 0.178 µM and 2.45 µM, respectively. This compound yielded a Selectivity in [3] of 14.

With `CCCC(=O)C1=CCCN(C)C1`, the Ki stood at 0.0131 µM in [1] and 2.73 µM in assay [2]. In assay [3], this compound gave a Selectivity of 208.

Turning to `CCCCC(=O)C1=CCCN(C)C1`, the Ki in assay [1] is 0.0613 µM; in assay [2], 1.385 µM. In [3], this compound gave a Selectivity of 23.

`CCC(=O)C1=CCCN(C)C1` [ARECOLON]: the Ki was 0.0058 µM in assay [1] and 1.95 µM in assay [2]. In assay [3], the Selectivity was determined as 336.

Take `CC(=O)C1=CCN(C)CC1`: the values for the Ki in assay [1] and in assay [2] were 0.0484 µM and 5.425 µM, respectively. This compound showed a Selectivity in assay [3] of 112.

`CN1CCC=C(C(=O)Cc2ccccc2)C1`: the results for the Ki in assay [1] and in assay [2] were 0.123 µM and 1.885 µM, respectively. In [3], this compound registered a Selectivity of 15.

Consider `CC#CC(=O)C1=CCCN(C)C1`, for which the Ki in [1] was determined as 0.0058 µM; in assay [2], 1.65 µM. In addition, the Concentration in assay [4] came to 1.79 nM/g; in assay [5] it was 1.8 nM/g; in assay [6], 0.88 nM/g; in assay [7] it was 1.21 nM/g. In addition, the Control came to 129% in assay [8], 115% in assay [9], 159% in assay [10] and 135% in [11]. Further, in assay [3], the Selectivity stood at 284.

Turning to `CC(=O)C1=CCCN(C)C1`, the Ki in assay [1] stood at 0.0327 µM; in assay [2], 4.38 µM. The same compound returned a Selectivity in assay [3] of 134.

Take `CN1CCC[C@H]1c1cccnc1` [NICOTINE]: the Concentration in assay [4] was determined as 2 nM/g; in assay [5], 2.18 nM/g; in assay [6], 0.86 nM/g; in assay [7], 134 nM/g. Further, the Control in assay [8] came to 144%; in assay [9], 140%; in [10] it was 157%; in assay [11] it was 151%.

`COC(=O)C1=CCCN(C)C1` [ARECOLINE] gave a Ki in assay [1] of 0.224 µM. That is a sub-micromolar value.

For the compound `CN1CC=C(C(=O)c2ccccc2)CC1`, the values for the Ki in assay [1] and in assay [2] were 0.766 µM and 3.75 µM, respectively. The Selectivity in assay [3] worked out at 5.

As for `CCCCC(=O)C1=CCN(C)CC1`, the Ki is 0.149 µM in assay [1] and 4.345 µM in assay [2]. In assay [3], this compound returned a Selectivity of 29.

As to `CN1CC=C(C(=O)Cc2ccccc2)CC1`, the results for the Ki in assay [1] and in assay [2] were 0.946 µM and 3.5 µM, respectively. Besides, the Selectivity in assay [3] was found to be 4.
